Four compounds from US6670446B1, “N1 modified glycopeptides” (Eli Lilly and Company, priority 1998, dated 2003) can be followed below.

Type in all cases: cell-based
Assay [1] concerns Staphylococcus aureus X778. Put plainly: MIC, standard broth micro-dilution assay, SA X778. The method, then:
(§1) The antibacterial efficacy of the present compounds is illustrated by Table III. The minimal inhibitory concentrations (MICs) were determined using a standard broth micro-dilution assay.
A general note: In broth dilution the organism is exposed to a series of concentrations in liquid medium.

Assay [2] has as its system Staphylococcus haemolyticus 105. Put plainly: MIC, standard broth micro-dilution assay, SH 105. The method, then:
as §1

The test system of assay [3] is Haemophilus influenzae RD. Briefly: MIC, standard broth micro-dilution assay, HFRD. The protocol: as §1
Assay [4] concerns Staphylococcus aureus S13E. The protocol: as §1
Assay [5] has as its system Enterococcus faecalis 276. Briefly: MIC, standard broth micro-dilution assay, EF 276. The protocol:
as §1

A further assay relates to Escherichia coli EC14. Briefly: MIC, standard broth micro-dilution assay, EC 14. The method, then: as §1
The test system of assay [6] is Staphylococcus aureus 491. Put plainly: MIC, standard broth micro-dilution assay, SA 491. The method, then:
as §1

The next assay has as its system Enterococcus faecium 180. Briefly: MIC, standard broth micro-dilution assay, EF 180. The method, then:
as §1

The subject of assay [7] is Staphylococcus aureus X400. Briefly: MIC, standard broth micro-dilution assay, SA X400. The protocol:
as §1

In assay [8] the test system is Staphylococcus epidermidis 270. Put plainly: MIC, standard broth micro-dilution assay, SE 270. The protocol: as §1
The subject of assay [9] is Staphylococcus haemolyticus 415. Put plainly: MIC, standard broth micro-dilution assay, SH 415. The protocol: as §1
In assay [10] the test system is Staphylococcus aureus SA1199A. Put plainly: MIC, standard broth micro-dilution assay, SA 1199A. The protocol: as §1
The test system of assay [11] is Staphylococcus aureus 447. Put plainly: MIC, standard broth micro-dilution assay, SA 447. The method, then:
as §1

Assay [12] deals with Staphylococcus aureus 489. Briefly: MIC, standard broth micro-dilution assay, SA 489. The protocol:
as §1

The subject of assay [13] is Staphylococcus aureus SA1199. Briefly: MIC, standard broth micro-dilution assay, SA 1199. The protocol: as §1
Assay [14] deals with Enterococcus faecium 180-1. Put plainly: MIC, standard broth micro-dilution assay, EF 180-1. The protocol:
as §1

For assay [15], the system named is Sensitive Enterococcus faecium and faecalis. Briefly: MIC, standard broth micro-dilution assay, Sensitive. Conditions: geometric mean of 4-6 isolates. The method, then:
as §1

Assay [16] relates to Staphylococcus aureus 446. Briefly: MIC, standard broth micro-dilution assay, SA 446. The method, then:
as §1

The test system of assay [17] is Resistant Enterococcus faecium and faecalis. Put plainly: MIC, standard broth micro-dilution assay, Resistant. The following applies: geometric mean of 4-6 isolates. The protocol:
as §1

Assay [18] relates to Enterococcus faecalis 2041. Put plainly: MIC, standard broth micro-dilution assay, EF 2041. The method, then:
as §1

Assay [19] concerns Enterococcus gallinarum 245. Put plainly: MIC, standard broth micro-dilution assay, EG 245. The protocol: as §1

Consider `CC1OC(OC2c3ccc(c(Cl)c3)Oc3cc4cc(c3OC3OC(CO)C(O)C(O)C3OC3CC(C)(NCc5ccc(-c6ccccc6)cc5)C(O)C(C)O3)Oc3ccc(cc3Cl)C(O)C(NC(=O)C(CCCCNC(=O)OC(C)(C)C)NC(=O)OC(C)(C)C)C(=O)NC(CC(N)=O)C(=O)NC4C(=O)NC3C(=O)NC2C(=O)NC(C(=O)O)c2cc(O)cc(O)c2-c2cc3ccc2O)CC(C)(N)C1O` [Example 30, N^1-(N,N′-DIBOC-L-lysine) derivative of N^DISACC-(p-phenylbenzyl)desleucylA82846B], for which, in assay [1], the “minimal inhibitory concentration (MIC), SA X778” value came to 1. Also, the “minimal inhibitory concentration (MIC), SH 105” value in assay [2] worked out at 2. In assay [3], the “minimal inhibitory concentration (MIC), HFRD” value was over 64. For the same compound, the “minimal inhibitory concentration (MIC), SA S13E” value in assay [4] was determined as 2. The “minimal inhibitory concentration (MIC), EF 276” value in [5] is on record as 2. Besides, the “minimal inhibitory concentration (MIC), EC 14” value with Escherichia coli EC14 is over 64. The “minimal inhibitory concentration (MIC), SA 491” value in [6] stood at 2. Further, in the assay with Enterococcus faecium 180, the “minimal inhibitory concentration (MIC), EF 180” value is 8. Further, in [7], the “minimal inhibitory concentration (MIC), SA X400” value is reported as 2. In assay [8], the “minimal inhibitory concentration (MIC), SE 270” value was 1. For the same compound, the “minimal inhibitory concentration (MIC), SH 415” value in [9] is reported as 2. In assay [10], the “minimal inhibitory concentration (MIC), SA 1199A” value came out at 1. The “minimal inhibitory concentration (MIC), SA 447” value in assay [11] came out at 2. Further, the “minimal inhibitory concentration (MIC), SA 489” value in assay [12] came out at 1. In [13], the “minimal inhibitory concentration (MIC), SA 1199” value was found to be 2. For the same compound, the “minimal inhibitory concentration (MIC), EF 180-1” value in assay [14] is on record as 0.5. Also, in [15], the “minimal inhibitory concentration (MIC), Sensitive” value came out at 2.3. Besides, the “minimal inhibitory concentration (MIC), SA 446” value in [16] came out at 8. Besides, the “minimal inhibitory concentration (MIC), Resistant” value in [17] turned out to be 38. The “minimal inhibitory concentration (MIC), EF 2041” value in assay [18] came out at 1. Also, the “minimal inhibitory concentration (MIC), EG 245” value in assay [19] was found to be 2.
In the case of `CC1OC(OC2c3ccc(c(Cl)c3)Oc3cc4cc(c3OC3OC(CO)C(O)C(O)C3OC3CC(C)(N)C(O)C(C)O3)Oc3ccc(cc3Cl)C(O)C(NC(=O)C(Cc3ccccc3)N(C)C(=O)OC(C)(C)C)C(=O)NC(CC(N)=O)C(=O)NC4C(=O)NC3C(=O)NC2C(=O)NC(C(=O)O)c2cc(O)cc(O)c2-c2cc3ccc2O)CC(C)(N)C1O` [Example 40, N^1-(N-BOC-N-methyl-D-phenylalanine) derivative of desleucylA82846B], in [1], the “minimal inhibitory concentration (MIC), SA X778” value is 4. The “minimal inhibitory concentration (MIC), SH 105” value in [2] is given as 4. In addition, the “minimal inhibitory concentration (MIC), HFRD” value in assay [3] is listed as over 64. In addition, the “minimal inhibitory concentration (MIC), SA S13E” value in [4] is 4. Moreover, in assay [5], the “minimal inhibitory concentration (MIC), EF 276” value was determined as 1. Also, the “minimal inhibitory concentration (MIC), EC 14” value in the assay with Escherichia coli EC14 is reported as over 64. Moreover, the “minimal inhibitory concentration (MIC), SA 491” value in assay [6] is 2. For the same compound, the “minimal inhibitory concentration (MIC), EF 180” value in the assay with Enterococcus faecium 180 is on record as over 64. For the same compound, in [7], the “minimal inhibitory concentration (MIC), SA X400” value was 4. The “minimal inhibitory concentration (MIC), SE 270” value in assay [8] was determined as 4. Further, the “minimal inhibitory concentration (MIC), SH 415” value in [9] is listed as 64. For the same compound, in [10], the “minimal inhibitory concentration (MIC), SA 1199A” value was 2. In addition, the “minimal inhibitory concentration (MIC), SA 447” value in assay [11] is listed as 8. Besides, in assay [12], the “minimal inhibitory concentration (MIC), SA 489” value was 4. Besides, the “minimal inhibitory concentration (MIC), SA 1199” value in assay [13] was determined as 4. In addition, in assay [14], the “minimal inhibitory concentration (MIC), EF 180-1” value was determined as 4. Moreover, the “minimal inhibitory concentration (MIC), Sensitive” value in [15] amounted to 9.2. Also, in assay [16], the “minimal inhibitory concentration (MIC), SA 446” value is 4. In [17], the “minimal inhibitory concentration (MIC), Resistant” value was over 128. Moreover, in assay [18], the “minimal inhibitory concentration (MIC), EF 2041” value came to 2. The “minimal inhibitory concentration (MIC), EG 245” value in [19] came to 16.
Consider `CC1OC(OC2c3ccc(c(Cl)c3)Oc3cc4cc(c3OC3OC(CO)C(O)C(O)C3OC3CC(C)(NCc5ccc(-c6ccc(Cl)cc6)cc5)C(O)C(C)O3)Oc3ccc(cc3Cl)C(O)C(NC(=O)CCCCCCNC(=O)OC(C)(C)C)C(=O)NC(CC(N)=O)C(=O)NC4C(=O)NC3C(=O)NC2C(=O)NC(C(=O)O)c2cc(O)cc(O)c2-c2cc3ccc2O)CC(C)(N)C1O` (stereo not drawn) [Example 9, N^1- [7-(tert-butoxycarboxamido)-n-heptanoyl]-N^DISACC-[p-(p-chlorophenyl)benzyl]desleucylA82846B], for which the “minimal inhibitory concentration (MIC), SA X778” value in [1] was 1. In addition, in assay [2], the “minimal inhibitory concentration (MIC), SH 105” value is 0.5. Further, the “minimal inhibitory concentration (MIC), HFRD” value in assay [3] is on record as over 64. Further, the “minimal inhibitory concentration (MIC), SA S13E” value in assay [4] amounted to 1. For the same compound, in assay [5], the “minimal inhibitory concentration (MIC), EF 276” value is given as 1. Moreover, the “minimal inhibitory concentration (MIC), EC 14” value in the assay on Escherichia coli EC14 was over 64. Also, the “minimal inhibitory concentration (MIC), SA 491” value in assay [6] is 1. The “minimal inhibitory concentration (MIC), EF 180” value with Enterococcus faecium 180 is 2. Also, in assay [7], the “minimal inhibitory concentration (MIC), SA X400” value came to 2. Moreover, in assay [8], the “minimal inhibitory concentration (MIC), SE 270” value was determined as 1. The “minimal inhibitory concentration (MIC), SH 415” value in assay [9] is listed as 1. Besides, the “minimal inhibitory concentration (MIC), SA 1199A” value in assay [10] is listed as 0.25. The “minimal inhibitory concentration (MIC), SA 447” value in assay [11] was 2. Besides, the “minimal inhibitory concentration (MIC), SA 489” value in [12] was 1. Besides, in assay [13], the “minimal inhibitory concentration (MIC), SA 1199” value was 1. In addition, in assay [14], the “minimal inhibitory concentration (MIC), EF 180-1” value is reported as 0.5. Moreover, the “minimal inhibitory concentration (MIC), Sensitive” value in assay [15] is recorded as 0.66. The “minimal inhibitory concentration (MIC), SA 446” value in assay [16] was found to be 2. Also, the “minimal inhibitory concentration (MIC), Resistant” value in assay [17] amounted to 4.8. Besides, the “minimal inhibitory concentration (MIC), EF 2041” value in assay [18] was determined as 0.5. Also, in assay [19], the “minimal inhibitory concentration (MIC), EG 245” value is listed as 1.
As for `CC1OC(OC2c3ccc(c(Cl)c3)Oc3cc4cc(c3OC3OC(CO)C(O)C(O)C3OC3CC(C)(NCc5ccc(-c6ccccc6)cc5)C(O)C(C)O3)Oc3ccc(cc3Cl)C(O)C(NC(=O)C(N)Cc3ccc(Cl)cc3)C(=O)NC(CC(N)=O)C(=O)NC4C(=O)NC3C(=O)NC2C(=O)NC(C(=O)O)c2cc(O)cc(O)c2-c2cc3ccc2O)CC(C)(N)C1O` [Example 33, N^1-[L-3-(p-chlorophenyl)alanine] derivative of N^DISACC-(p-phenylbenzyl)desleucylA82846B], the “minimal inhibitory concentration (MIC), SA X778” value in assay [1] amounted to 1. Moreover, the “minimal inhibitory concentration (MIC), SH 105” value in assay [2] came to 0.5. Besides, the “minimal inhibitory concentration (MIC), HFRD” value in [3] is listed as over 64. Moreover, in assay [4], the “minimal inhibitory concentration (MIC), SA S13E” value came to 1. In assay [5], the “minimal inhibitory concentration (MIC), EF 276” value amounted to 4. Moreover, in the assay on Escherichia coli EC14, the “minimal inhibitory concentration (MIC), EC 14” value is on record as over 64. The “minimal inhibitory concentration (MIC), SA 491” value in assay [6] turned out to be 0.5. Further, the “minimal inhibitory concentration (MIC), EF 180” value in the assay on Enterococcus faecium 180 is 4. In addition, the “minimal inhibitory concentration (MIC), SA X400” value in assay [7] worked out at 1. Also, the “minimal inhibitory concentration (MIC), SE 270” value in assay [8] was determined as 0.25. For the same compound, the “minimal inhibitory concentration (MIC), SH 415” value in assay [9] turned out to be 0.5. Besides, the “minimal inhibitory concentration (MIC), SA 1199A” value in assay [10] was 0.25. Also, the “minimal inhibitory concentration (MIC), SA 447” value in assay [11] came out at 1. Besides, in [12], the “minimal inhibitory concentration (MIC), SA 489” value was 2. For the same compound, the “minimal inhibitory concentration (MIC), SA 1199” value in assay [13] was determined as 0.5. Also, in assay [14], the “minimal inhibitory concentration (MIC), EF 180-1” value is 0.5. The “minimal inhibitory concentration (MIC), Sensitive” value in [15] is on record as 2.6. The “minimal inhibitory concentration (MIC), SA 446” value in assay [16] was 1. In addition, the “minimal inhibitory concentration (MIC), Resistant” value in [17] was 27. In addition, in [18], the “minimal inhibitory concentration (MIC), EF 2041” value is reported as 2. Further, the “minimal inhibitory concentration (MIC), EG 245” value in assay [19] is 1.
